Source: ChEMBL document CHEMBL3085632, “Subcellular localization of proflavine derivative and induction of oxidative stress--in vitro studies” (Bioorg Med Chem, 2013)
Calls of active or inactive are those of the source. No cut-off for these calls is given here.

Key:
L1210 [1] = test: Induction of apoptosis in mouse L1210 cells assessed as nucleosomal DNA fragmentation at 10 to 15 uM after 4 hrs by agarose gel electrophoresis; format: functional, cell-based
[2] = Drug uptake in nucleus of mouse L1210 cells at 5 uM after 1 hr by propidium iodide staining-based confocal microscopic analysis; format: ADME, cell-based; settings: l1210, 1 h
L1210 [3] = test: Cytotoxicity against mouse L1210 cells assessed as intracellular ATP level at 5 to 10 uM after 6 hrs by luminometric assay in presence of vitamin E; format: functional, cell-based
[4] = Drug uptake in nucleus of mouse L1210 cells by Hoechst-33342 staining-based fluorescence microscopic analysis; format: ADME, cell-based
[5] = Selectivity ratio of IC50 for mouse NIH/3T3 cells to IC50 for mouse L1210 cells; format: ADME, cell-based; settings: NIH/3T3 cells versus L1210 cells, read-out: Ratio IC50
[6] = Selectivity ratio of IC50 for mouse NIH/3T3 cells to IC50 for human HL60 cells; format: ADME, cell-based, HL-60; settings: NIH/3T3 cells versus HL60 cells, read-out: Ratio IC50
[7] = Drug uptake in mitochondria of mouse L1210 cells at 4 uM after 0.5 to 24 hrs by MitoRed staining-based flow cytometric analysis; format: ADME; settings: l1210, 4 µM
L1210 [8] = test: Induction of intracellular ROS production in mouse L1210 cells at 5 uM after 6 hrs by Dihydroethidium staining-based fluorescence assay in absence of vitamin E relative to control; format: functional
L1210 [9] = test: Cytotoxicity against mouse L1210 cells assessed as decrease in intracellular ATP level at 10 uM after 6 hrs by luminometric assay; format: functional; parameters: scale not given: the % may be the effect or the level left
L1210 [10] = test: Induction of intracellular ROS production in mouse L1210 cells at 5 uM after 6 hrs by Dihydroethidium staining-based fluorescence assay in presence of vitamin E relative to control; format: functional, cell-based
L1210 [11] = test: Cell cycle arrest in mouse L1210 cells assessed as accumulation at sub-G0 phase at 10 uM after 5 hrs by propidium iodide staining-based flow cytometric analysis relative to control; format: functional
NIH3T3 = test: Cytotoxicity against mouse NIH/3T3 cells assessed as cell viability after 72 hrs by MTT assay; format: cell-based; settings: NIH3T3, 72 h
[12] = Drug uptake in lysosomes of mouse L1210 cells at 4 uM after 30 mins by MDC staining-based flow cytometric analysis; format: ADME, cell-based, Lysosome; settings: l1210, 0.5 h
L1210 [13] = test: Cell cycle arrest in mouse L1210 cells assessed as accumulation at S-phase at 10 uM after 5 hrs by propidium iodide staining-based flow cytometric analysis relative to control; format: functional
L1210 [14] = test: Cytotoxicity against mouse L1210 cells assessed as cell viability at 50 uM after 24 hrs by MTT assay in presence of vitamin E; format: functional; settings: L1210, 24 h, read-out: Activity
L1210 [15] = test: Induction of apoptosis in mouse L1210 cells assessed as DNA ladder formation at 10 to 15 uM after 8 hrs by agarose gel electrophoresis; format: functional, cell-based
L1210 [16] = test: Cytotoxicity against mouse L1210 cells assessed as cell viability at 5 to 20 uM after 24 hrs by MTT assay in presence of vitamin E; format: functional, cell-based

Compound: CCCCCCN1C(=O)CN/C1=N\c1ccc2cc3ccc(/N=C4\NCC(=O)N4CCCCCC)cc3nc2c1.Cl
- Activity (L1210 [1]): inactive
- Drug uptake [2]: Not Active
- Activity (L1210 [3]): inactive
- Drug uptake [4]: Not Active
- selectivity ratio [5]: 4
- selectivity ratio [6]: 4
- Drug uptake [7]: Active
- fold change (FC) (L1210 [8]): 4
- Activity (L1210 [9]): 50%
- Activity (L1210 [10]): inactive
- Activity (L1210 [11]): 17.7%
- IC50 (NIH3T3): 18.6 µM
- Drug uptake [12]: Not Active
- Activity (L1210 [13]): Active
- viability at 50 µM (L1210 [14]): 80%
- Activity (L1210 [15]): Active
- Activity (L1210 [16]): Active
